In PMC3592886, “Utilization of Quantitative In Vivo Pharmacology Approaches to Assess Combination Effects of Everolimus and Irinotecan in Mouse Xenograft Models of Colorectal Cancer” (PLoS ONE, 2013):
pIC50: −log10 of the molar value. Read-outs that look alike come from different tables or passages of the source. Marks after values point to notes of the source that are not given here.

Experiments:
[1] = everolimus, mice; cited from earlier work
HCT116 tumor xenografts = assay: Therapeutic study and tumor growth modeling, HCT116 tumor xenografts; format: in vivo, mice
Method: (§1) For tumor bearing studies, cells were harvested and resuspended in a 1∶1 mixture of serum-free RPMI and Matrigel (BD Bioscience). One million cells were injected subcutaneously into each rear flank of mice. Tumor volumes, measured by digital calipers, were calculated by V (mm^3) = length x (width)^2 x 0.5236.
(§2) When HT29 and HCT116 tumors reached an average volume of ∼325 mm^3 animals were randomized into four treatment groups (n = 9–10 mice per group): (i) vehicles, (ii) 5 mg/kg everolimus (RAD) by oral gavage (PO) daily, (iii) 10 mg/kg irinotecan (IRI) once weekly by intravenous (iv) tail vein injection, and (iv) a combination of RAD and IRI. Everolimus, diluted in sterile water, and irinotecan, diluted in sterile 0.9% saline, were administered at 4 mL/kg. Animals were treated for 28 days. Tumor volumes and body weights were measured 2–3 times weekly. On day 28 of treatment 3–6 animals per group were sacrificed, approximately 24 hours following everolimus treatment, and tumors harvested for metabolomic analysis.
(§3) Data from the in vivo study was modeled to assess the therapeutic benefit of adding everolimus to irinotecan. The model used was similar to a previously published model for assessing combination therapy. Some modifications were made and details of the model can be found in Supplement S1 (section SA.3.) and Supplement S2. All modeling was performed on individual animal tumor volume data and modeled with SAAM II version 2.1. […]
(§4) are presented in Tables 1 and 2 in Supplement B. Individual fits of the model to the data can also be found in Supplement B. The average growth terms for each tumor type were then fixed at the average parameter value and used to determine the single agent effects (kx) of each compound by fitting the following equation: […] where cx(t) is the concentration of drug x with respect to time. Individual tumors were modeled and the average value of kx determined (Supplement B Tables 1 & 2) for each single agent treatment. This value was used to fit the following equation to the combination tumor growth data to determine the degree of interaction between the two drugs.
(§5) , the interaction term, was determined for each individual tumor for each tumor type and the data is presented in Table 2 in the main text and individual fits can be found in Supplement B.
(§6) We determined that values greater than 1.3 are synergistic, between 1.3 and 0.7 are additive, between 0.7 and 0 are less than additive, and negative values for are antagonistic. These ranges were selected based on the model fits. The CV% for the model fits ranged from 15 to 50 with an average CV% of approximately 30%. Therefore we assume an average variance of 30% making the additive range from 1.3 to 0.7 (1 + 30% and 1- 30%). […]

HT29 cells [2] = assay: Sulforhodamine B (SRB) anti-proliferation assay, HT29; format: cell-based
Method: (§7) Cytoxic effects were determined using the sulforhodamine B (SRB) assay. Briefly, 5000 viable cells were plated into 96-well plates and incubated overnight prior to exposure with different concentrations of drugs. Cells were exposed to increasing concentrations of everolimus (0–200 nM), SN38 (0–8 nM), and combinations of the two. Following a 72 hour incubation, media was removed and cells were fixed with cold 10% trichloroacetic acid for 30 minutes at 4° C. Cells were washed with water and stained with 0.4% SRB for 30 minutes at room temperature. Cells were washed again with 1% acetic acid and stain was solubilized with 10 mM tris at room temperature and read at an OD of 565 nm. […] The resulting Combination Index (CI) was used as a quantitative measure of the degree of interaction between different drugs. A CI value equal to 1 denotes additivity; CI greater than 1, antagonism; CI less than 1, synergism.

[3] = Human, cited from earlier work
HT29 cells [4] = assay: In vitro metabolomics, HT29 cells; format: cell-based; details: 24 and 96 hours exposure to 30nM RAD001
Method: (§8) Metabolomics was performed in vitro on HCT116
(§9) (KRAS mt; PIK3CA mt) and HT29 (BRAF mt;
(§10) PIK3CA mt) cells after 0 (control), 24 and 96 hours exposure to 30nM RAD001. In both cell lines after 24 and 96 hours glucose uptake was reduced showing a decrease in proliferation. […]

HCT116 tumors = assay: NMR-based metabolomics of HCT116 tumors; format: in vivo, mice; details: end of study
Method: as §2
(§11) For metabolomic analysis, animals were fasted for 4 hours then received 250 mg/kg of [1-^13C] glucose (Cambridge Isotopes, Cambridge, MA) by IV injection 60 minutes prior to tumor harvesting. Snap-frozen tumor specimens underwent two-phase acid extraction procedure (using 8% perchloric acid) previously established and extensively published [19]–[22]. Further details may also be found in Supplement S1 (section SA.2.).

HT29 tumors = assay: NMR-based metabolomics of HT29 tumors; format: in vivo, mice; details: end of study
Method: as §2, §11

[5] = Human pharmacokinetics of everolimus from the literature; format: in vivo; details: humans at the clinically used doses of 5 to 10 mg per day; 75% plasma protein binding used; from data of ref 25, 26
Source text: For in vivo studies, we established doses of everolimus and irinotecan to administer to mice that would yield exposures at or below clinically achievable levels. Human pharmacokinetic information on everolimus, [26] and irinotecan/SN38 [27]–[30] was gathered from the literature and is presented in Tables 1 and 2 respectively.

HCT8 cells = assay: Sulforhodamine B (SRB) anti-proliferation assay, HCT8; format: cell-based; details: RAD (20 nM), SN38 (4 nM) or the combination of the two, Figure 2
Method: as §7

HT29 tumor xenografts = assay: Therapeutic study and tumor growth modeling, HT29 tumor xenografts; format: in vivo, mice
Method: as §1, §2, §3, §4, §5, §6

HCT116 cells = assay: In vitro metabolomics, HCT116 cells; format: cell-based; details: 24 and 96 hours exposure to 30nM RAD001
Method: as §8, §9, §10

[6] = tested on: VEGF and bFGF stimulated endothelial cells (HUVECs); set-up: method as in PMID 19223496; details: read-out: IC50, anti-proliferative activity; cited from earlier work
[7] = 10 mg daily oral, steady-state, ref 25

In the case of `CO[C@H]1C[C@@H]2CC[C@@H](C)[C@@](O)(O2)C(=O)C(=O)N2CCCC[C@H]2C(=O)O[C@H]([C@H](C)C[C@@H]2CC[C@@H](OCCO)[C@H](OC)C2)CC(=O)[C@H](C)/C=C(\C)[C@@H](O)[C@@H](OC)C(=O)[C@H](C)C[C@H](C)/C=C/C=C/C=C/1C` [Everolimus, 40-O-(2-hydroxyethyl)-rapamycin], the plasma protein binding [1] is given as 99%, the “k2 (SD), single agent effect” value (HCT116 tumor xenografts; HCT116 (KRAS and PIK3CA mutant), RAD) is given as 0.000482 (0.00011) mL/ng*day-1 and the “average tumor growth inhibition, TGI” value (HCT116 tumor xenografts; HCT116 xenografts, 5 mg/kg everolimus PO daily, 10 mg/kg irinotecan iv once weekly, or combination, 28 days) is given as 44%. For the same compound, the “%Growth Inhibition” value (HT29 cells [2]; HT29, RAD (20 nM), SN38 (4 nM) or the combination of the two, Figure 2) was 74%, the pIC50 (HT29 cells [2]; Homo sapiens, HT-29, HT29 cells) was 8.92 and the AUC0→t ([3]; 5 mg daily oral, ref 25) was 238 ± 77 ng·h/mL. The Cmin ([3]; 5 mg daily oral, ref 25) was “^†5.4 ng/mL”, the AUC0→t ([3]; 5 mg daily oral, ref 26) was 543 ± 189 ng·h/mL and the Cmin ([3]; 5 mg daily oral, steady-state, estimated from graph in reference) was “∼12–14^bd ng/mL”. The Cmax ([3]; 5 mg daily oral, steady-state) was 32±9 ^b ng/mL, the AUC0→t ([3]; 10 mg daily oral, ref 25) was 514 ± 231 ng·h/mL and the AUC0→t ([3]; 10 mg daily oral, ref 26) was 711 ± 113 ng·h/mL. The Cmin ([3]; 10 mg daily oral, steady-state, estimated from graph in reference) was “∼20^bd ng/mL”, the Cmax [3, 7] was 61±17 ^b ng/mL and the Cmin [3, 7] was 13.3 ^b ng/mL. The Cmax ([3]; 10 mg daily oral, steady-state, ref 26) was 66±1.4 ^b ng/mL, the glucose uptake (HT29 cells [4]) was “reduced” and the “effects on glucose metabolism” value (HCT116 tumors) was “decrease in lactate and glycolysis”. The “effects on glucose metabolism” value (HT29 tumors) was “decrease in lactate and glycolysis”, the “AUCss,free (steady-state free plasma exposure)” value [5] was 60 to 178 ng·h/mL and the “%Growth Inhibition” value (HCT8 cells) was 59%. For the same compound, the “k2 (SD), single agent effect” value (HT29 tumor xenografts; HT29 (BRAF and PIK3CA mutant), RAD) was 0.000263 (0.00015) mL/ng*day-1, the “average tumor growth inhibition, TGI” value (HT29 tumor xenografts; HT29 xenografts, 5 mg/kg everolimus PO daily, 10 mg/kg irinotecan iv once weekly, or combination, 28 days) was 40% and the glucose uptake (HCT116 cells) was “reduced”. The pIC50 [6] was 9.10 to 10.00.
